Laboratory results reported in ChEMBL document CHEMBL1135082, “Benzylidene rhodanines as novel inhibitors of UDP-N-acetylmuramate/L-alanine ligase” (Bioorg Med Chem Lett, 2002).
Values after ≈ are worked out from the molar mass of the structure shown.

Experiments:
CHO [1] = assay: Cytotoxic effect at mammalian Chinese hamster ovary (CHO) cells; type: functional, cell-based; conditions: Cricetulus griseus
Escherichia coli = assay: The whole cell inhibitory activity was evaluated against the Gram-negative Escherichia coli; Not active; type: functional
[2] = Inhibitory concentration against recombinant UDP-N-Acetylmuramate/L-Alanine Ligase (MurC) enzyme
Staphylococcus aureus = assay: The whole cell inhibitory activity was evaluated against Gram-positive methicillin-resistant Staphylococcus aureus (MRSA); type: functional
CHO [3] = assay: Cytotoxic effect at mammalian Chinese hamster ovary (CHO) cells; Toxic; type: functional, cell-based; conditions: Cricetulus griseus

| SMILES | IC50 (CHO [1]) [µM] | MIC (Escherichia coli) [µM] | IC50 [2] [µM] | MIC (Staphylococcus aureus) [µM] | IC50 (CHO [3]) [µM] |
| --- | --- | --- | --- | --- | --- |
| O=C1NC(=S)S/C1=C\c1cc([N+](=O)[O-])ccc1Sc1ccc(Cl)cc1 | > 73 | > 87 | 24 | 70 (≈ 28.6 µg/mL) |  |
| O=C1NC(=S)S/C1=C\c1cccc(Oc2ccccc2)c1 | > 96 | > 87 | 22 | 79 (≈ 24.8 µg/mL) |  |
| O=C1NC(=S)S/C1=C/c1cc([N+](=O)[O-])ccc1SCc1ccc(Cl)cc1 |  | > 65 | 27 | 31 (≈ 13.1 µg/mL) | 29 |
| O=C1NC(=S)S/C1=C\c1cc([N+](=O)[O-])ccc1Oc1ccc(Cl)cc1 |  | > 76 | 24 | > 76 |  |
| O=C1NC(=S)S/C1=C\c1ccc(/C=C/c2ccccc2)cc1 |  | > 93 | 18 | > 93 |  |
| O=C1NC(=S)S/C1=C\c1cc(OCc2ccccc2)cc(OCc2ccccc2)c1 |  | > 69 | 12 | > 69 |  |
